Data taken from patent US11306084B2, “Integrin antagonists” (Saint Louis University, priority 2016, dated 2022).
Counter-ions that a name gives are not always drawn.

Columns and labels:
Type in all cases: binding
[1] = biological target: T1, Recombinant human integrin ανβ3 (Homo sapiens, UniProt P05106+P06756); assay: Solid Phase Receptor Assay (SPRA) for ανβ3 function; conditions: plate-bound human vitronectin; read-out: αvβ3 SPRA IC50
T1 construct: purchased R&D Systems 3050-AV
Protocol: C. Solid Phase Receptor Assay (SPRA) for ανβ3 Function
(§1) Wells were washed 3 times with 150 μL TBS+ and then 150 μL of blocking buffer (TBS+ with 1% bovine serum albumin, Sigma A7906) was added. The plate was incubated for 1 hr at 37° C. and then washed 3× with TBS+ buffer. […] Compounds were diluted to 20 μM and then 1 μL was added to each well of the plate according to a standard template with each sample repeated in triplicate. After incubation for two hours at room temperature, the plate was washed 3× with 150 μL of TBS+ buffer. To each well, 50 μL of biotinylated anti-αν antibody (R&D Systems, BAF1219) at 0.5 μg/mL in TBS+/0.1% BSA were added and the plate covered and incubated for 1 hr at room temperature. After washing the plate 3× with 150 μL of TBS+ buffer, 50 μL of streptavidin-conjugated horseradish peroxidase (R&D Systems, DY998) diluted in TBS+ blocking buffer were added to the wells and the plate incubated for 20 min at room temperature. The plate was washed 3× with TBS+ buffer followed by 50 μL of TMB substrate (Sigma, T4444) added to each well in the dark and the plate was incubated for 25 min at room temperature. 25 μL of 1.0 M phosphoric acid was added as a stop solution and the plates were read at 450 nm using a Spectramax plate reader.

[2] = biological target: T2, Recombinant human integrin ανβ8 (Homo sapiens, UniProt P06756+P26012); assay: Solid Phase Receptor Assay (SPRA) for ανβ8 function; conditions: plate-bound human LAP; read-out: αvβ8 SPRA IC50
T2 construct: purchased R&D Systems 4135-AV
T2 sequence (P06756 31-992 limits assumed): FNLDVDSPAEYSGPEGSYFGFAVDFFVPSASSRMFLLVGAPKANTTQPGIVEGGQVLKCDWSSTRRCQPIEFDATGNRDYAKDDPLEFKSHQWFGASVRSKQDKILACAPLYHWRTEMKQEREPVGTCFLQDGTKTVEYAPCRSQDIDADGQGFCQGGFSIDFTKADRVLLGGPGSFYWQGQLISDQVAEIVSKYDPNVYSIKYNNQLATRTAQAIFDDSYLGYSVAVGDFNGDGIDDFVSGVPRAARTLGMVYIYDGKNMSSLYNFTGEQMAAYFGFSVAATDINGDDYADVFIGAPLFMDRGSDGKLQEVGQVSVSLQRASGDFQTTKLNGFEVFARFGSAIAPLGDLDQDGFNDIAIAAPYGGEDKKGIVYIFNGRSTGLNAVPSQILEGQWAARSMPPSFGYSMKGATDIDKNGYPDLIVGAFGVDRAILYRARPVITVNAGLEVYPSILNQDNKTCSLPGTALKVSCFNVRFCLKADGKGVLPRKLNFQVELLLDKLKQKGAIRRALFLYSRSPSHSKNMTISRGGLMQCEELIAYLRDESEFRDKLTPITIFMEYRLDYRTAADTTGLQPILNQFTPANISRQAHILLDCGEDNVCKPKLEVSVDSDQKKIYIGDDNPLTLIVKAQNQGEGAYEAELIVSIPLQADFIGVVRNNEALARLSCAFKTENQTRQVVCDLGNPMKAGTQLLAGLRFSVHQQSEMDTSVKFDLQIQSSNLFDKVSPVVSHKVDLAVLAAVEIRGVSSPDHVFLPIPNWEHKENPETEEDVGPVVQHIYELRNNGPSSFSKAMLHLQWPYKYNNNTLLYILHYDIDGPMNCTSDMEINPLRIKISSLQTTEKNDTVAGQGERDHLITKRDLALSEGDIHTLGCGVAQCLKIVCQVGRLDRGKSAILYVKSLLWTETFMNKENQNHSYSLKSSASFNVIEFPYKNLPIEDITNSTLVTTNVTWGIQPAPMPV
T2 sequence (P26012 43-684 limits assumed): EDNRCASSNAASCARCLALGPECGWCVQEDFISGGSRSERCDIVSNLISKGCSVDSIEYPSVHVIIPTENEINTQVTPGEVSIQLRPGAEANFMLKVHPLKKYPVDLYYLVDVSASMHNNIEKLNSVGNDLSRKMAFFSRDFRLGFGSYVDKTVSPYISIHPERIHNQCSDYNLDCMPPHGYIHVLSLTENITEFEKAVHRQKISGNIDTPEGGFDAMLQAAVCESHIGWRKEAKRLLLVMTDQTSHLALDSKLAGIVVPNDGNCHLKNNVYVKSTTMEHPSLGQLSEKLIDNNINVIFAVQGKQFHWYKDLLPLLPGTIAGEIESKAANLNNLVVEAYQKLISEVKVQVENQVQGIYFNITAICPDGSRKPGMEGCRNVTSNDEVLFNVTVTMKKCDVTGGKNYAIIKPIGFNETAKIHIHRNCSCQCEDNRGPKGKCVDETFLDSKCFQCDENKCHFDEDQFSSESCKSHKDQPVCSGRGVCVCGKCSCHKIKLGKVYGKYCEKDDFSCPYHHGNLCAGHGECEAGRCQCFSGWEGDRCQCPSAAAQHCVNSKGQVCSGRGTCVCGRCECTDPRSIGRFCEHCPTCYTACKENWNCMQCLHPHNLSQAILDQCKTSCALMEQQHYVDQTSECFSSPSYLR
Protocol: F. Solid Phase Receptor Assay (SPRA) for ανβ8 Function
Wells were washed 3 times with 150 μL TBS+ and then 150 μL of blocking buffer (TBS+ with 1% bovine serum albumin, Sigma A7906) was added. The plate was incubated for 1 hr at 37° C. and then washed 3× with TBS+. […] Compounds were diluted to 20 μM and 1 μL was added to each well of the plate according to a standard template with each sample repeated in triplicate. After incubation for two hours at room temperature, the plate was washed 3× with 150 μL of TBS+. To each well, 50 μL of biotinylated anti-αν antibody (R&D Systems, BAF1219) at 1 μg/mL in TBS+/0.1% BSA were added and the plate was covered and incubated for 1 hr at room temperature. After washing the plate 3× with 150 μL. of TBS+ buffer, 50 μL of streptavidin-conjugated horseradish peroxidase (R&D Systems, DY998) diluted in TBS+ blocking buffer were added to the wells and the plate incubated for 20 min at room temperature. The plate was washed 3× with TBS+ followed by 50 μL of TMB substrate (Sigma T4444) added to each well in the dark and the plate incubated for 10 min at room temperature. 25 μL of 1.0 M phosphoric acid was added as a stop solution and the plates were read at 450 nm using a Spectramax plate reader.

[3] = biological target: T3, Recombinant human integrin ανβ1 (Homo sapiens, UniProt P05556+P06756); assay: Solid Phase Receptor Assay (SPRA) for ανβ1 function; conditions: plate-bound human fibronectin; read-out: αvβ1 SPRA IC50
T3 construct: purchased R&D Systems 6579-AV
T3 sequence (P06756 31-992 limits assumed): as the sequence (P06756 31-992 limits assumed) above
T3 sequence (P05556 21-728 limits assumed): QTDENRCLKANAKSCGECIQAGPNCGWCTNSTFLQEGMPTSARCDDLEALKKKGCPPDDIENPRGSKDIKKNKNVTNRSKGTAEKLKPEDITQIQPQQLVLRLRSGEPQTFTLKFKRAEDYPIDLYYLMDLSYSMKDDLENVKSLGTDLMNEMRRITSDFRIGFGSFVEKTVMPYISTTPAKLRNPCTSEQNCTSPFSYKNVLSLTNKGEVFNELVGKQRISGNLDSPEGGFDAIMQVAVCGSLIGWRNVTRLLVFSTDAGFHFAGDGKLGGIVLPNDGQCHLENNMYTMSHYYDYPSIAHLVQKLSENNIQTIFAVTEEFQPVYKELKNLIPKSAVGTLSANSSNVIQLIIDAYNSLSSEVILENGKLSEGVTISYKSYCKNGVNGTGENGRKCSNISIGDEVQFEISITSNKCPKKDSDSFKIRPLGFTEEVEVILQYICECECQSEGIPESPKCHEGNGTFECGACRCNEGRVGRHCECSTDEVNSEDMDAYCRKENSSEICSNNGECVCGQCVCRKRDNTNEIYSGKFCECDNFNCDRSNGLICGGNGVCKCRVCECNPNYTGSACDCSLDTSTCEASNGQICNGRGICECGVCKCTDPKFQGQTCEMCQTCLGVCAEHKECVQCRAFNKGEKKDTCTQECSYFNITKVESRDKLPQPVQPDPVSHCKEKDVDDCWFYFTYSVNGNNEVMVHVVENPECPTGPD
Protocol: B. Solid Phase Receptor Assay (SPRA) for ανβ1 Function
as §1, with “μM and 1 μL” for “μM and then 1 μL”, “was washed 3 with 150” for “was washed 3× with 150”, “BAF1219) at 1 μg/mL in” for “BAF1219) at 0.5 μg/mL in”, “the plate incubated for” for “the plate was incubated for”

[4] = biological target: T4, Recombinant human integrin ανβ5 (Homo sapiens, UniProt P06756+P18084); assay: Solid Phase Receptor Assay (SPRA) for ανβ5 function; conditions: plate-bound human vitronectin; read-out: αvβ5 SPRA IC50
T4 construct: purchased R&D Systems 2528-AV
T4 sequence (P06756 31-992 limits assumed): as the sequence (P06756 31-992 limits assumed) above
T4 sequence (P18084 24-719 limits assumed): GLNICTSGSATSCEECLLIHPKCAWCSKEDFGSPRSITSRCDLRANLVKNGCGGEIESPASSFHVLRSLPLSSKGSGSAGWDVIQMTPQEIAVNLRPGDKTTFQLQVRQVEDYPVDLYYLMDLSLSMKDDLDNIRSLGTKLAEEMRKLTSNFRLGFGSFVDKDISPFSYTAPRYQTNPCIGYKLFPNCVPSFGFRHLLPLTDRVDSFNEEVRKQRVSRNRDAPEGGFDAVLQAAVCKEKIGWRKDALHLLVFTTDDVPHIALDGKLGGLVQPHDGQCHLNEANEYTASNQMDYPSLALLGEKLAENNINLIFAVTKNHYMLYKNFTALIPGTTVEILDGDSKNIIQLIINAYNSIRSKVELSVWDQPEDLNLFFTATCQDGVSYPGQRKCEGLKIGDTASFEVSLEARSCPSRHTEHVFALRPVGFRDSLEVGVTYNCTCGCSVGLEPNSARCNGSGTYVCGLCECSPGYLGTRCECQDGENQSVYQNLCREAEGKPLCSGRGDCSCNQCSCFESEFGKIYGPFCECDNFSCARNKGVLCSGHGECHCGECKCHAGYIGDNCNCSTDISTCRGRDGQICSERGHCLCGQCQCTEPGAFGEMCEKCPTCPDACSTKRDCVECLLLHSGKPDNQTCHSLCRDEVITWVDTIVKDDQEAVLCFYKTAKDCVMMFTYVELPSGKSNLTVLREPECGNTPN
Protocol: D. Solid Phase Receptor Assay (SPRA) for ανβ5 Function
Wells were washed 3 times with 150 μL TBS+ and then 150 μL of blocking buffer (TBS+ with 1% bovine serum albumin, Sigma A7906) was added. The plate was incubated for 1 hr at 37° C. and then washed 3× with TBS+ buffer. […] Compounds were diluted to 20 μM and then 1 μL was added to each well of the plate according to a standard template with each sample repeated in triplicate. After incubation for two hours at room temperature, the plate was washed 3× with 150 μL of TBS+ buffer. To each well, 50 μl of biotinylated anti-αν antibody (R&D Systems, BAF1219) at 0.5 μg/mL in TBS+/0.1% BSA at 0.5 μg/mL were added and the plate covered and incubated for 1 hr at room temperature. After washing the plate 3 with 150 μL of TBS+ buffer, 50 μL of streptavidin-conjugated horseradish peroxidase (R&D Systems, DY998) diluted in TBS+ blocking buffer were added to the wells and the plate incubated for 20 min at room temperature. The plate was washed 3× with TBS+ buffer followed by 50 μL of TMB substrate (Sigma T4444) added to each well in the dark and the plate incubated for 5 min at room temperature. 25 μL of 1.0 M phosphoric acid was added as a stop solution and the plates were read at 450 nm using a Spectramax plate reader.

[5] = biological target: T5, Recombinant human integrin ανβ6 (Homo sapiens, UniProt P06756+P18564); assay: Solid Phase Receptor Assay (SPRA) for ανβ6 function; conditions: plate-bound human LAP; read-out: αvβ6 SPRA IC50
T5 construct: purchased R&D Systems 3817-AV
T5 sequence (P06756 31-992 limits assumed): as the sequence (P06756 31-992 limits assumed) above
T5 sequence (P18564 22-707 limits assumed): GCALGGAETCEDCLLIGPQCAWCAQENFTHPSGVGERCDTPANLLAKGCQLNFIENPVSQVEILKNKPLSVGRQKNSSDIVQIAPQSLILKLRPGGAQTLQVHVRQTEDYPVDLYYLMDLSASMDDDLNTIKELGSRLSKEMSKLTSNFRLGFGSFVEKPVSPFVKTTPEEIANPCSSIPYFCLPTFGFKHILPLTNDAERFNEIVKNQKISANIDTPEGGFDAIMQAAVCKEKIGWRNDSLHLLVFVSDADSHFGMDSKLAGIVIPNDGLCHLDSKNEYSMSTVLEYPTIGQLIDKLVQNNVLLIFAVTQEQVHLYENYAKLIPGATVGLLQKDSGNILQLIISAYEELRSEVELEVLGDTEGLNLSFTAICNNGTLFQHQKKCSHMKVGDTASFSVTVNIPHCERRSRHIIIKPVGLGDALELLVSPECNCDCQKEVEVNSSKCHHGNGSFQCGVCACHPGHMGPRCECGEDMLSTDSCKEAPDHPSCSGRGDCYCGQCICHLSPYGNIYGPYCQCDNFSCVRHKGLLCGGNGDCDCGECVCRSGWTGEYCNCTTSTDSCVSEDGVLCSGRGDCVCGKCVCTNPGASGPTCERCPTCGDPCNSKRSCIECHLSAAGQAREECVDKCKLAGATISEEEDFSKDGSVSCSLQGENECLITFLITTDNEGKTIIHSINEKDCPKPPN
Protocol: E. Solid Phase Receptor Assay (SPRA) for ανβ6 Function
Wells were washed 3 times with 150 μL TBS+, and then 150 μL of blocking buffer (TBS+ with 1% bovine serum albumin, Sigma A7906) was added. The plate was incubated for 1 hr at 37° C., and then washed 3× with TBS+ buffer. […] Compounds were diluted to 20 μM and then 1 μL was added to each well of the plate according to a standard template with each sample repeated in triplicate. After incubation for two hours at room temperature, the plate was washed 3× with 150 μL of TBS+ buffer. To each well, 50 μL of biotinylated anti-αν antibody (R&D Systems, BAF1219) at 0.5 μg/mL in TBS+/0.1% BSA were added and the plate was covered and incubated for 1 hr at room temperature. After washing the plate 3× with 150 μL of TBS+ buffer, 50 μL of streptavidin-conjugated horseradish peroxidase (R&D Systems, DY998) diluted in TBS+ blocking buffer were added to the wells and the plate incubated for 20 min at room temperature. The plate was washed 3× with TBS+ buffer followed by 50 μL of TMB substrate (Sigma T4444) added to each well in the dark and the plate incubated for 10 min at room temperature. 25 μL of 1.0 M phosphoric acid was added as a stop solution and the plates were read at 450 nm using a Spectramax plate reader.

[6] = biological target: T6, Recombinant human integrin α5β1 (Homo sapiens, UniProt P05556+P08648); assay: Solid Phase Receptor Assay (SPRA) for α5β1 function; conditions: plate-bound human fibronectin
T6 construct: purchased R&D Systems 3230-A5
Protocol: A. Solid Phase Receptor Assay (SPRA) for α5β1 Function
Wells were washed 3 times with 150 μL TBS+ and then 150 μL of blocking buffer (TBS+ with 1% bovine serum albumin, Sigma A7906) was added. The plate was incubated for 1 hr at 37° C. and then washed 3× with TBS+ buffer. […] Compounds were diluted to 20 μM and then 1 μL was added to each well of the plate according to a standard template with each sample repeated in triplicate. After incubation for two hours at room temperature, the plate was washed 3× with 150 μL of TBS+ buffer. To each well, 50 μL of biotinylated anti-α5 antibody (R&D Systems, BAF1864) at 0.5 μg/mL in TBS+/0.1% BSA were added and the plate covered and incubated for 1 hr at room temperature. After washing the plate 3× with 150 μL of TBS+ buffer, 50 μL of streptavidin-conjugated horseradish peroxidase (R&D Systems, DY998) diluted in TBS+ blocking buffer were added to the wells and the plate incubated for 20 min at room temperature. The plate was washed 3× with TBS+ buffer followed by 50 μL of room temperature TMB substrate (Sigma, T4444) added to each well in the dark and the plate incubated for 25 min at room temperature. 25 μL of 1.0 M phosphoric acid was added as a stop solution and the plates were read at 450 nm using a Spectramax plate reader.

T1 sequence (P06756 31-992 limits assumed): as the sequence (P06756 31-992 limits assumed) above
T1 sequence (P05106 27-718 limits assumed): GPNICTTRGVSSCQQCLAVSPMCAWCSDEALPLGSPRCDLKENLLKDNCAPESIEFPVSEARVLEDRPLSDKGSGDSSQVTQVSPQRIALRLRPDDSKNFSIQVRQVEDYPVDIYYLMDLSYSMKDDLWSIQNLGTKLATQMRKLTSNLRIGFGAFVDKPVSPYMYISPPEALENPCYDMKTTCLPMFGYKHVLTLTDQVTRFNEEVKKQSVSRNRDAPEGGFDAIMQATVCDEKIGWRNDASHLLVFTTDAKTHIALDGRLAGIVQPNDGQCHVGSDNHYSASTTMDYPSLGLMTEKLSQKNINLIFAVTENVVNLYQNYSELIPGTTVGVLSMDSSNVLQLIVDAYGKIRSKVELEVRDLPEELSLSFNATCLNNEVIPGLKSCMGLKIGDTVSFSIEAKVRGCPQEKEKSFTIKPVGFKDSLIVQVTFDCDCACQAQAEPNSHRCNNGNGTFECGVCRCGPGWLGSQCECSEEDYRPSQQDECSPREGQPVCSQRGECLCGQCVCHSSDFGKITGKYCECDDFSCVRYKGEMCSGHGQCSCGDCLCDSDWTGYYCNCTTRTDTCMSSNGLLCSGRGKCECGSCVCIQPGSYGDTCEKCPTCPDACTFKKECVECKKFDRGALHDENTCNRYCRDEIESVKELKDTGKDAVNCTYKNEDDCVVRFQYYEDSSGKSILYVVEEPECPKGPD

Row | SMILES | IC50 [1] | IC50 [2] | IC50 [3] | IC50 [4] | IC50 [5] | IC50 [6]
1 | Cn1nc(CC(CC(=O)O)c2cc(C#N)cc(C(F)(F)F)c2)cc1OCCc1ccc2c(n1)NCCC2 (stereo not drawn) [Example 12, 3-(3-cyano-5-(trifluoromethyl)phenyl)-4-(1-methyl-5-(2-(5,6,7,8-tetrahydro-1,8-naphthyridin-2-yl)ethoxy)-1H-pyrazol-3-yl)butanoic Acid] | 4.3 nM | 14 nM | 4.5 nM | 0.1 nM | 27 nM | –
2 | CC(C)Oc1ccc(C(C)(C)C)cc1C(CC(=O)O)Cc1cc(OCCc2ccc3c(n2)NCCC3)n(C)n1 (stereo not drawn) [Example 35, 3-(5-tert-butyl-2-isopropoxy-phenyl)-4-[1-methyl-5-[2-(5,6,7,8-tetrahydro-1,8-naphthyridin-2-yl)ethoxy]pyrazol-3-yl]butanoic Acid Trifluoroacetate] | – | 120 nM | 7.6 nM | – | 1100 nM | 75 nM
